Data as given in ChEMBL document CHEMBL3632583, “Haenamindole, an unusual diketopiperazine derivative from a marine-derived Penicillium sp. KCB12F005” (Bioorg Med Chem Lett, 2015).
Calls of active or inactive are those of the source. No cut-off for these calls is given here.

How the values were obtained:
Escherichia coli = experiment: Antimicrobial activity against Escherichia coli at 50 ug/disk after 48 hrs by paper disk method; assay type: functional, organism-based
HeLa = experiment: Cytotoxicity against human HeLa cells after 96 hrs by WST method; assay type: functional, cell-based
[1] = Cytotoxicity against human Hep3B cells after 96 hrs by WST method; assay type: functional, cell-based, Hep 3B2
HL-60 = experiment: Cytotoxicity against human HL60 cells after 96 hrs by WST method; assay type: functional, cell-based; conditions: HL-60, 96 h
K562 = experiment: Cytotoxicity against human K562 cells after 96 hrs by WST method; assay type: functional, cell-based; conditions: K562, 96 h
Bacillus cereus = experiment: Antimicrobial activity against Bacillus cereus at 50 ug/disk after 48 hrs by paper disk method; assay type: functional, organism-based
Staphylococcus aureus = experiment: Antimicrobial activity against Staphylococcus aureus at 50 ug/disk after 48 hrs by paper disk method; assay type: functional, organism-based
Salmonella enteritidis = experiment: Antimicrobial activity against Salmonella enteritidis at 50 ug/disk after 48 hrs by paper disk method; assay type: functional, organism-based; conditions: Salmonella enterica subsp. enterica serovar Enteritidis

## O=C1N[C@@H](Cc2ccccc2)C(=O)N(O)[C@@H]1C[C@]1(O)c2ccccc2N2C(=O)C[C@@H](c3ccccc3)N[C@H]21
Escherichia coli
  Activity: inactive
HeLa
  IC50: > 85 µM
[1]
  IC50: > 85 µM
HL-60
  IC50: > 85 µM
K562
  IC50: > 85 µM
Bacillus cereus
  Activity: inactive
Staphylococcus aureus
  Activity: inactive
Salmonella enteritidis
  Activity: inactive
